# Data taken from patent publication US20250049930A1, “PROTAC MOLECULES TARGETING FOXP3 AND USES THEREOF” (CEDARS-SINAI MEDICAL CENTER, priority 2022, published 2025).
# Residues, ends and D or L forms follow the SMILES beside them. *: point of attachment. X1 = O=C1CCC(N2C(=O)c3cccc(*)c3C2=O)C(=O)N1; PEG4 = NCCOCCOCCOCCOCCC(=O)O
# What was measured:
# Tregs = assay: Treg immunosuppression co-culture assay with mouse splenocytes (CFSE dilution, TNFα); format: cell-based; settings: mouse CD4+ splenocytes treated 72 hours, co-cultured with effector cells stimulated with αCD3 and αCD28
# Experimental: FIGS. 3A-3D depict that PF decreased the immunosuppressive function of Tregs in vitro and decreased tumor growth in mice. To treat Tregs, CD4+ splenocytes were isolated and treated with PF or various controls for 72 hours. To assess the immunosuppressive effects of these cells, they were washed and co-cultured with effector cells, which were stimulated with antibodies to CD3 and CD28 in vitro (FIGS. 3A-3C). CD8 proliferation was measured using a CFSE dilution assay. To assess CD8+ effector cells, CD4 negative splenocytes were CFSE labeled and CFSE dilution was measured in CD8+ cells by flow cytometry (FIG. 3A). In the same experiment, CD8+ lymphocyte activation was assessed by measuring TNFα (FIG. 3B). Also, CD4+ lymphocyte activation was assessed by measuring TNFα (FIG. 3C). Mice tumors were established by injection RENCA cells subcutaneously in the flank of Balb/C mice (5-7 mice per group) (FIG. 3D). 10 days later, mice were treated i.p., twice a week throughout the experiment, with the indicated drugs and tumor growth was monitored. Pomalidomide conjugated to (PEG)4 (PROTAC-control; PC) and P60 served as controls. […]
# To assess T cell activation in vitro, single suspension of mouse splenocytes were separated into CD4 positive (+) and negative (−) cells using EasySep Mouse CD4+ selection kit (STEMCELL technologies, Vancouver, BC, Canada). […] To study effector cell function, CD4+ and CD4− cells were cocultured (1.2 ratio) with treated-Treg and stimulated with αCD3 (10 μg/mL) and αCD28 (5 μg/mL) for 3 days; percent of CD4+ or CD8+ cells staining for intracellular FoxP3, CFSE, or TNFα were assessed by flow cytometry (LSR II, BD Biosciences, San Jose, CA 95131).
# Tregs play a central role in suppressing and regulating the immune response. […] CD8 proliferation was measured using a CFSE dilution assay. To assess CD8+ effector cells, CD4 negative splenocytes were CFSE labeled and CFSE dilution was measured in CD8+ cells by flow cytometry (FIG. 3A). CD8+ lymphocyte activation was assessed by measuring TNFα (FIG. 3B). Also, CD4+ lymphocyte activation was assessed by measuring TNFα (FIG. 3C). […]
# cereblon = cereblon (Homo sapiens, UniProt Q96SW2); assay: SPR assay, binary complex; format: binding; settings: 25° C., binary complex of cereblon and P-FoxP3
# Experimental: (§1) The SPR assay for ternary complex cooperativity was performed by BOC Sciences who provided the following details: Various concentrations of cereblon were dissolved in water and manually printed onto the 47 nm gold-coated PlexArray Nanocapture Sensor Chip (Plexera Bioscience, Seattle, WA) at 40% humidity. Each concentration was printed in replicate, and each spot contained […] of sample solution. The chip was incubated overnight in 80% humidity at 4° C., and rinsed with 10×PBST for 10 minutes, 1×PBST for 10 minutes, and deionized water twice for 10 minutes. The chip was then blocked with 5% non-fat milk in water overnight, washed as before, and then dried under a stream of nitrogen.
# (§2) SPR imaging measurements were performed with PlexAray HT (Plexera Bioscience, Seattle, WA, US). Buffers and samples were injected by a non-pulsatile piston pump into the 30 μL flow cell. […] The signal changes after binding and washing (in AU) are recorded as the assay value. Selected protein-grafted regions in the SPR images were analyzed, and the average reflectivity variations of the chosen areas were plotted as a function of time. Real-time binding signals were recorded and analyzed by Data Analysis Module (DAM, Plexera Bioscience, Seattle, WA, US). […]
# [1] = biological target: ternary complex consisting of cereblon, FoxP3, and P-FoxP3 (Homo sapiens, UniProt Q96SW2+Q9BZS1); assay: SPR assay, ternary complex cooperativity; format: binding
# Experimental: as §1, §2
# Chain of ternary complex consisting of cereblon, FoxP3, and P-FoxP3 (Q96SW2 whole entry): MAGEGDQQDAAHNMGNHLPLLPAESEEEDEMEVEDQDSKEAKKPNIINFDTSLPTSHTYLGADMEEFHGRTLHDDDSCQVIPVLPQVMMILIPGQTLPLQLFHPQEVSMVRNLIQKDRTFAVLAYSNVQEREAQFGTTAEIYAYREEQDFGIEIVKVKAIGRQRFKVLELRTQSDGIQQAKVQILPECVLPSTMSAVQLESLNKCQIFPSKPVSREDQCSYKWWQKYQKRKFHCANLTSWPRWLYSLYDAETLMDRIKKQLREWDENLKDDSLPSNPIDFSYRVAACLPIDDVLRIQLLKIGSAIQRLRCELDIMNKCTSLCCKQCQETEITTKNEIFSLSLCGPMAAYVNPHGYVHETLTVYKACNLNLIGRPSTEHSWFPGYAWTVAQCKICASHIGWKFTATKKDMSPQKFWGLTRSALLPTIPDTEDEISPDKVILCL
# Chain of ternary complex consisting of cereblon, FoxP3, and P-FoxP3 (Q9BZS1 whole entry): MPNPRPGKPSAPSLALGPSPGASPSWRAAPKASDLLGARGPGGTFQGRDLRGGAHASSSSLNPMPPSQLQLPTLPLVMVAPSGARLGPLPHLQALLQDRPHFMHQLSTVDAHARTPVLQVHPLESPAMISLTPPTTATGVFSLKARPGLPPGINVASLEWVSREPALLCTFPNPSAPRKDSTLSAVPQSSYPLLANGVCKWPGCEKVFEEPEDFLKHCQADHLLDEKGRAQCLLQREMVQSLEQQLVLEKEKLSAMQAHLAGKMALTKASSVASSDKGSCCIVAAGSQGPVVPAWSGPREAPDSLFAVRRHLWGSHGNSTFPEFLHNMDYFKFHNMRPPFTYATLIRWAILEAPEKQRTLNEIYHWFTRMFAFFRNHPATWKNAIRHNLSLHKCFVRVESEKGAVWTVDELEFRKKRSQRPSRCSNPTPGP
# Chain of cereblon (Q96SW2 whole entry): as the sequence (Q96SW2 whole entry) above
smiles,measurement,setting,value
"CSCC[C@H](NC(=O)[C@H](C)NC(=O)[C@H](Cc1ccccc1)NC(=O)[C@H](Cc1ccccc1)NC(=O)[C@@H]1CCCN1C(=O)[C@H](Cc1c[nH]c2ccccc12)NC(=O)[C@H](CCSC)NC(=O)[C@H](CCCCN)NC(=O)[C@H](CCCNC(=N)N)NC(=O)[C@H](Cc1ccccc1)NC(=O)[C@H](CO)NC(=O)[C@H](CCC(N)=O)NC(=O)[C@H](Cc1ccccc1)NC(=O)[C@H](CC(=O)O)NC(=O)[C@H](CCCNC(=N)N)NC(=O)CCOCCOCCOCCOCCNc1cccc2c1C(=O)N(C1CCC(=O)NC1=O)C2=O)C(=O)O (stereo partly drawn) [PF, Pomalidomide-PEG4-RDFQSFRKMWPFFAM] ({X1-PEG4}-RDFQSFRKMWPFFAM-OH)",suppression of CD4+ effector lymphocyte activation by treated CD4+ cells (TNFα),Tregs,less capable of suppressing the activation of CD4+ effector lymphocytes
same,suppression of CD8+ lymphocyte activation by treated CD4+ lymphocytes (TNFα expression),Tregs,less capable of suppressing
same,suppression of CD8+ lymphocyte proliferation by treated CD4+ lymphocytes (CFSE dilution),Tregs,less capable of suppressing
same,Kd,cereblon,0.987 µM
same,Kd,"[1]; SPR, cereblon printed on chip, 25° C., complex of cereblon, P-FoxP3 and recombinant FoxP3, read-out: Equilibrium dissociation constant, KD ternary",0.434 µM
same,"Cooperativity, a=KD binary/KD ternary","[1]; a>1 positively cooperative, a=1 non-cooperative, a<1 negatively cooperative",2.27
